The values that follow come from article PMC6317804, “The integration of pharmacophore-based 3D QSAR modeling and virtual screening in safety profiling: A case study to identify antagonistic activities against adenosine receptor, A2A, using 1,897 known drugs” (PLoS ONE, 2019).

Where two headings read alike, the source gives them in different places.

The target in assay [1] is T1, adenosine receptor 2A (A2A) (Homo sapiens, UniProt P29274).
T1 construct: CEREP (Poitiers, France), paid service
Conditions: cited from earlier work; for IC50: S1 Table, compounds given as SMILES, downloaded from ChEMBL; for measured pIC50: training set compound, negative logarithm of IC50.

In assay [2] the target is T1, adenosine receptor 2A (A2A). Description: Functional antagonist assay monitoring cAMP (CEREP).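 Note: eight-point concentration-response from 0 to 10 µM.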 The class given is cell-based. Conditions: concentration-response up to 10 μM; read-out: IC50, cAMP.
Description: (§1) Competition binding assay using radioactive ligands and functional assay monitoring cAMP were carried out as a paid service provided by CEREP (Poitiers, France). The functional assays monitoring Ca^2+ flux were carried out as a paid service provided by DiscoveRx (Carlsbad, CA).
Assay [3] shares this target. In words: Functional assay monitoring Ca2+ flux (DiscoveRx).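 Note: concentration-response testing with 10 µM as highest concentration.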 The class given is cell-based. Conditions: read-out: IC50, Ca2+, M. A general note: A change in cytosolic calcium serves as a functional read-out for many receptors and channels.
Description: as §1
Assay [4] shares this target. Description: Competition binding assay using radioactive ligands (CEREP).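 Note: compounds screened at a single fixed 10 µM concentration for displacement of a radioligand.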 Conditions: fixed compound concentration of 10 μM.
Description: as §1

T1 sequence (P29274 whole entry): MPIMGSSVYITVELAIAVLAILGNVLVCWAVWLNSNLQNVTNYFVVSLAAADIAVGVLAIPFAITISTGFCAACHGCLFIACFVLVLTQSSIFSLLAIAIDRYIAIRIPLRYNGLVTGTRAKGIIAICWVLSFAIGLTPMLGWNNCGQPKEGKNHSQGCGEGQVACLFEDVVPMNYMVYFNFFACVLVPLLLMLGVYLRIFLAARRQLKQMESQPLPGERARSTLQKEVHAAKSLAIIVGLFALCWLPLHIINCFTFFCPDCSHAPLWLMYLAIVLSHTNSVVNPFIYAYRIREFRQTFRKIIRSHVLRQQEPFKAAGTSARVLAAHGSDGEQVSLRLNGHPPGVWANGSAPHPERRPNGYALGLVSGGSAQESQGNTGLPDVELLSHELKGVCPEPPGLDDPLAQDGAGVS

As a reminder, the IC50 is the concentration that inhibits the measured activity by half. Take `CCNc1nc(C(=O)c2ccc(C)s2)c2sccc2n1` [CCNc1nc(C(=O)c2ccc(C)s2)c3sccc3n1]: the half-inhibitory concentration (IC50) in assay [1] was 126 nM.

`COc1ccc(Nc2c(-c3ccc4nccnc4c3)c(C)nn2-c2ccccc2Cl)c(C(=O)O)c1`: the half-maximal inhibitory concentration (IC50) in assay [1] was 50000 nM.

On to `C[C@@H](O)[C@H]1C(=O)N2C(C(=O)O)=C(S[C@@H]3CN[C@H](C(=O)Nc4cccc(C(=O)O)c4)C3)[C@H](C)[C@H]12` [Ertapenem], for which the inhibition at up to 10 µM in assay [2] is less than 50%. Moreover, the inhibition in assay [3] is less than 50%. In assay [4], the inhibition at 10 µM is less than 50%.

With `CN(C)c1cc2nc(NCc3cccnc3)nc(C(=O)c3cccs3)c2s1`, the concentration for half-maximal inhibition (IC50) in assay [1] is 1420 nM.

On to `C#C[C@]1(O)CC[C@H]2[C@@H]3CCC4=CCCC[C@@H]4[C@H]3C(=C)C[C@@]21CC` [Desogestrel], for which, in assay [2], the inhibition at up to 10 µM is less than 50%. In addition, the inhibition in assay [3] is less than 50%. The inhibition at 10 µM in assay [4] is less than 50%.

Consider `Cc1nc(C(=O)c2ccc(C)s2)c2sccc2n1` [Cc1ccc(s1)C(=O)c2nc(C)nc3ccsc23], for which the IC50 in assay [1] was 7850 nM.

Take `C=CC1=C(C(=O)O)N2C(=O)[C@@H](NC(=O)/C(=N\OCC(=O)O)c3csc(N)n3)[C@H]2SC1` [Cefixime]: the inhibition at up to 10 µM in assay [2] was less than 50%. Also, in assay [3], the inhibition was less than 50%. Moreover, the inhibition at 10 µM in assay [4] was less than 50%.

Turning to `CCCNCC(O)COc1ccccc1C(=O)CCc1ccccc1` (centres unmarked) [Propafenone], in assay [2], the inhibition at up to 10 µM was less than 50%. Moreover, the inhibition in assay [3] is less than 50%. Moreover, the inhibition at 10 µM in assay [4] is less than 50%.

As for `Cc1ccc(C(=O)c2nc(NCc3cccnc3)nc3ccsc23)s1` [Cc1ccc(s1)C(=O)c2nc(NCc3cccnc3)nc4ccsc24], the IC50 in assay [1] is 990 nM.

On to `COC(=O)C1=C(C)NC(C)=C(C(=O)OC(C)C)C1c1cccc2nonc12` (centres unmarked) [Isradipine], for which, in assay [2], the inhibition at up to 10 µM is less than 50%. Besides, the inhibition in assay [3] is less than 50%. The inhibition at 10 µM in assay [4] is less than 50%.

In the case of `Cc1ccc(C(=O)c2nc(NCc3cccnc3)nc3ccsc23)cc1`, the IC50 in assay [1] is 442 nM.

In the case of `Nc1cc2nc(NCc3cccnc3)nc(C(=O)c3cccs3)c2s1` [Nc1cc2nc(NCc3cccnc3)nc(C(=O)c4cccs4)c2s1], the IC50 in assay [1] was 10000 nM.

For `C[C@@H](Nc1nc(C(=O)N2CCCC2)c2sccc2n1)c1cccnc1`, the IC50 in assay [1] was 6760 nM.

For the compound `Cc1ccc(C(=O)c2nc(NCc3ccccn3)nc3ccsc23)s1` [Cc1ccc(s1)C(=O)c2nc(NCc3ccccn3)nc4ccsc24], in assay [1], the half-maximal inhibitory concentration (IC50) was 186 nM.

For the compound `CCNc1c2c(nc(NC(=O)Nc3ccc(OC)cc3)n3nc(-c4ccco4)nc23)nn1C`, in assay [1], the half-inhibitory concentration (IC50) is 61 nM.

As for `Cc1ccc(C(=O)c2nc(NC(C)c3ccccc3)nc3ccsc23)s1` (centres unmarked), in assay [1], the IC50 was 1080 nM.

For `COc1ccc(C(=O)c2nc(NCc3cccnc3)nc3ccsc23)cc1`, the IC50 in assay [1] is 637 nM.

On to `O=C(c1ccc(Cl)s1)c1nc(NCc2cccnc2)nc2ccsc12`, for which the IC50 in assay [1] is 1540 nM.

In the case of `Cc1ccc(C(=O)c2nc(N(C)Cc3cccnc3)nc3ccsc23)s1`, the half-inhibitory concentration (IC50) in assay [1] was 2270 nM.

For `O=C(c1nccs1)c1nc(NCc2cccnc2)nc2ccsc12` [O=C(c1nccs1)c2nc(NCc3cccnc3)nc4ccsc24], the IC50 in assay [1] was 732 nM.

As for `Cc1ccccc1-n1nc(C(F)(F)F)c(-c2ccc3nccnc3c2)c1Nc1ccccc1C(=O)O`, the half-inhibitory concentration (IC50) in assay [1] is 50000 nM.

In the case of `CC(Nc1nc(C(=O)N2CCCC2)c2sccc2n1)c1cccnc1` (centres unmarked) [CC(Nc1nc(C(=O)N2CCCC2)c3sccc3n1)c4cccnc4], the IC50 in assay [1] is 2350 nM.

On to `CCc1ccccc1-n1nc(C)c(-c2ccc3nccnc3c2)c1Nc1ccc(OC)cc1C(=O)O`, for which the IC50 in assay [1] was 50000 nM.

As for `O=C(c1nc(NCc2cccnc2)nc2ccsc12)N1CCCC1` [O=C(N1CCCC1)c2nc(NCc3cccnc3)nc4ccsc24], in assay [1], the half-maximal inhibitory concentration (IC50) was 6140 nM.

For `Cc1ccc(C(=O)c2nc(NCCc3ccccn3)nc3ccsc23)s1`, the 50% inhibitory concentration (IC50) in assay [1] was 351 nM.

Take `Cc1ccc(C(=O)c2nc(NC(C)c3ccccn3)nc3ccsc23)s1` (centres unmarked): in assay [1], the concentration for half-maximal inhibition (IC50) was 118 nM.

For `Nc1nc2c(cnn2CCc2ccc(OCc3ccccc3)cc2)c2nc(-c3ccco3)nn12`, in assay [1], the IC50 is 90 nM.

Regarding `Cc1ccccc1-n1ncc(-c2ccc3nccnc3c2)c1Nc1ccccc1C(=O)O`, in assay [1], the IC50 was 50000 nM.

Turning to `Cc1ccc(C(=O)c2nc(NCc3cccnc3)nc3ccsc23)o1` [Cc1oc(cc1)C(=O)c2nc(NCc3cccnc3)nc4ccsc24], in assay [1], the 50% inhibitory concentration (IC50) was 1250 nM.

Consider `C[C@H](Nc1nc(C(=O)N2CCCC2)c2sccc2n1)c1cccnc1`, for which the IC50 in assay [1] is 468 nM.

For `O=C(c1ccncc1)c1nc(NCc2cccnc2)nc2ccsc12` [O=C(c1ccncc1)c2nc(NCc3cccnc3)nc4ccsc24], the half-maximal inhibitory concentration (IC50) in assay [1] was 1940 nM.

As to `Cc1ccc(C(=O)c2nc(NCCc3cccnc3)nc3ccsc23)s1`, the concentration for half-maximal inhibition (IC50) in assay [1] was 177 nM.

Regarding `Cc1ccc(C(=O)c2nc(NC(C)c3cccnc3)nc3ccsc23)s1` (centres unmarked), the concentration for half-maximal inhibition (IC50) in assay [1] was 99 nM.

As to `Cc1ccccc1-n1nc(C)c(-c2cc(F)c3nccnc3c2)c1Nc1ccccc1C(=O)O`, in assay [1], the half-inhibitory concentration (IC50) was 50000 nM.

In the case of `O=C(c1cncs1)c1nc(NCc2cccnc2)nc2ccsc12` [O=C(c1cncs1)c2nc(NCc3cccnc3)nc4ccsc24], in assay [1], the concentration for half-maximal inhibition (IC50) was 1720 nM.

For the compound `O=C(NC1CC1)c1nc(NCc2cccnc2)nc2ccsc12` [O=C(NC1CC1)c2nc(NCc3cccnc3)nc4ccsc24], the IC50 in assay [1] is 710 nM.

In the case of `COc1cccc(-c2cc(NC(C)=O)nc(-n3nc(C)cc3C)n2)c1F`, the IC50 in assay [1] is 32 nM.

In the case of `O=C(c1cccnc1)c1nc(NCc2cccnc2)nc2ccsc12` [O=C(c1cccnc1)c2nc(NCc3cccnc3)nc4ccsc24], the 50% inhibitory concentration (IC50) in assay [1] was 1170 nM.

On to `CSc1c2c(nc(N)n3nc(-c4ccco4)nc23)nn1C` [CSc1c2c(nc(N)n3nc(nc23)c4occc4)nn1C], for which, in assay [1], the half-inhibitory concentration (IC50) is 6.1 nM.

As to `CCOC(=O)Nc1cc(-c2cncc(OC)c2)nc(-n2nc(C)cc2C)n1`, the concentration for half-maximal inhibition (IC50) in assay [1] was 196 nM.

On to `COc1ccc(Nc2c(-c3ccc4nccnc4c3)c(C)nn2-c2ccccc2C)c(C(=O)O)c1`, for which, in assay [1], the concentration for half-maximal inhibition (IC50) was 50000 nM.

For the compound `Cc1ccccc1-n1nc(C)c(-c2ccc3nccnc3c2)c1Nc1ccc(Cl)cc1C(=O)O`, the IC50 in assay [1] was 50000 nM.

Regarding `Nc1nc2c(cnn2CCCc2ccc(O)cc2)c2nc(-c3ccco3)nn12`, in assay [1], the IC50 is 10 nM.

Consider `CCNC(=O)c1nc(NCc2cccnc2)nc2ccsc12` [CCNC(=O)c1nc(NCc2cccnc2)nc3ccsc13], for which the IC50 in assay [1] is 2520 nM.

On to `O=C(c1cccs1)c1nc(NCc2cccnc2)nc2ccsc12` [O=C(c1cccs1)c2nc(NCc3cccnc3)nc4ccsc24], for which, in assay [1], the IC50 is 51 nM.

`CCNc1cc2nc(NCc3cccnc3)nc(C(=O)c3cccs3)c2s1`: the IC50 in assay [1] was 2480 nM.

For “5-methoxy-2-((3-methyl-1-phenyl-4-(quinoxalin-6-yl)-1H-pyrazol-5-yl)amino)benzoic acid”, in assay [1], the IC50 was 5500 nM and the “measured pIC50” value is 4.3. The half-maximal inhibitory concentration (IC50) in assay [1] (listed as COc1ccc(Nc2c(c(C)nn2C3CCCCC3)c4ccc5nccnc5c4)c(c1)C(=O)O) was 50000 nM.

In the case of `Cc1ccc(C(=O)c2nc(NC(=O)c3cccnc3)nc3ccsc23)s1`, in assay [1], the IC50 is 161 nM.

With `COC(=O)Nc1cc(-c2cncc(OC)c2)nc(-n2nc(C)cc2C)n1`, the half-inhibitory concentration (IC50) in assay [1] was 167 nM.

Regarding `CCCSc1c2c(nc(N)n3nc(-c4ccco4)nc23)nn1C` [CCCSc1c2c(nc(N)n3nc(nc23)c4occc4)nn1C], in assay [1], the IC50 was 14.8 nM.

As to `Cc1ccc(C(=O)c2ncnc3ccsc23)s1` [Cc1ccc(s1)C(=O)c2ncnc3ccsc23], the concentration for half-maximal inhibition (IC50) in assay [1] was 6680 nM.

Consider `CC(C)NC(=O)c1nc(NCc2cccnc2)nc2ccsc12` [CC(C)NC(=O)c1nc(NCc2cccnc2)nc3ccsc13, N-isopropyl-2-((pyridin-3-ylmethyl)amino)thieno[3,2-d]pyrimidine-4-carboxamide], for which the “measured pIC50” value in assay [1] is reported as 5.6.

As for `O=C(c1ccsc1)c1nc(NCc2cccnc2)nc2ccsc12` [O=C(c1ccsc1)c2nc(NCc3cccnc3)nc4ccsc24], the half-inhibitory concentration (IC50) in assay [1] was 405 nM.

With `CCc1nn(-c2ccccc2C)c(Nc2ccccc2C(=O)O)c1-c1ccc2nccnc2c1`, the 50% inhibitory concentration (IC50) in assay [1] was 50000 nM.

Turning to `CCc1nc(C(=O)c2ccc(C)s2)c2sccc2n1` [CCc1nc(C(=O)c2ccc(C)s2)c3sccc3n1], in assay [1], the half-maximal inhibitory concentration (IC50) was 3850 nM.

Consider `O=C(c1ccccc1)c1nc(NCc2cccnc2)nc2ccsc12` [O=C(c1ccccc1)c2nc(NCc3cccnc3)nc4ccsc24], for which the half-inhibitory concentration (IC50) in assay [1] was 1620 nM.

Turning to `Cc1ccc(C(=O)c2nc(NCc3ccncn3)nc3ccsc23)s1` [Cc1ccc(s1)C(=O)c2nc(NCc3ccncn3)nc4ccsc24], in assay [1], the IC50 is 116 nM and the “measured pIC50” value is given as 6.9.

Regarding `O=C(c1cccs1)c1nc(NCc2cccnc2)nc2cc(Cl)sc12`, the IC50 in assay [1] is 62 nM.

For `CC(=O)Nc1cc(-c2cccc(N3CCC(O)CC3)n2)nc(-n2nc(C)cc2C)n1`, the IC50 in assay [1] was 22 nM.

As to `Nc1nc2c(cnn2Cc2ccc(OCc3ccccc3)cc2)c2nc(-c3ccco3)nn12`, the IC50 in assay [1] is 500 nM.

`CC(=O)Nc1cc(-c2cncc(O)c2)nc(-n2nc(C)cc2C)n1`: in assay [1], the half-inhibitory concentration (IC50) was 64 nM.

As for `CNc1cc2nc(NCc3cccnc3)nc(C(=O)c3cccs3)c2s1`, the IC50 in assay [1] is 965 nM.

For `COc1ccc(CCCn2ncc3c2nc(N)n2nc(-c4ccco4)nc32)cc1OC`, the 50% inhibitory concentration (IC50) in assay [1] is 20 nM.

Consider `Cc1ccc(Nc2c(-c3ccc4nccnc4c3)c(C)nn2-c2ccccc2C)c(C(=O)O)c1`, for which the IC50 in assay [1] was 50000 nM.

As to `Cc1ccc(C(=O)c2nc(NCC3CCCCC3)nc3ccsc23)s1` [Cc1ccc(s1)C(=O)c2nc(NCC3CCCCC3)nc4ccsc24], the figures for the IC50 in assay [1] and in assay [1] (listed as Cc1ccc(s1)C(=O)c2nc(NCc3ccccc3)nc4ccsc24) were 10000 nM and 7150 nM, respectively.

As for `Cc1ccc(C(=O)c2nc(N)nc3ccsc23)s1` [Cc1ccc(s1)C(=O)c2nc(N)nc3ccsc23], the IC50 in assay [1] was 220 nM.
